According to patent US11679113B2, “Anticancer treatment for uveal melanoma” (The Regents of the University of California, priority 2019, dated 2023):
Entries after “also recorded” stand apart in the source; their conditions may differ. Each block holds one molecule with its values, some of them ahead of it. Numbered stars: 1 amine (or outer) side, 2 acyl side, 3 side chain; on linkers, the order of the positions; unused ones are H or OH. Bridge positions count the residues as written; N and C are the ends. Square brackets hold non-standard residues; d marks the D form. Peptide text beside a SMILES is read from it. * marks the point of attachment. Leu(3R-OH,Nα-propionyl) = CCC(=O)N[C@H](C(=O)*)[C@H](O)C(C)C; X1 = CC(C)[C@@H](O[*:3])[C@H](N[*:1])C(=O)[*:2]; NMeT = CN[C@H](C(=O)O)[C@@H](C)O; dPhLac = O=C(O)[C@H](O)Cc1ccccc1; NMeA = CN[C@@H](C)C(=O)O; NMeDha = C=C(NC)C(=O)O

Assays:
OM cells = assay: FAKi/MEKi combination cell viability, synergy by Chou-Talalay CI and Bliss score; assay type: cell-based, human
Description: Applicant performed detailed combinatorial analysis achieving ERK pathway inhibition by a clinical MEK inhibitor, trametinib, combined with FAKi (VS-4718) at a series of dilutions of drug combinations. Drug combinations scored as synergistic (i. e., > than additive) are identified by using the most widely used methodologies: the Chou-Talalay combination index (CI) (Chou, 2010; Chou, 1984; and Chou, 2006) and the Bliss independence score (ΔBliss) (Chou, 2010; Chou, 2006; Berenbaum, 1989; Greco, 1995; and Geary, 2013) as Applicant recently described (Yamaguchi et al., 216).

[1] = test system: SK-MEL-28 cells (BRAF mutant SKCM); assay: Cell viability assay in SKCM control cell line; assay type: cell-based, human
Description: (§1) HEK293 and HEK293T cells were cultured in DMEM (Sigma-Aldrich Inc., MO) containing 10% FBS (Sigma-Aldrich Inc., MO) and 1× antibiotic/antimycotic solution (Sigma-Aldrich Inc., MO). Culture conditions for UM cells (OMM1.3, OMM1.5, MEL202, Mel270 and 92.1) have been described elsewhere (Schmitt et al., 2007; Zuidervaart et al., 2005). SK-MEL-28 cells were purchased from ATCC and cultured following ATCC recommendations in EMEM containing 10% FBS. VS-4718 (PND-1186) was purchased from MedChemExpress (MCE) pre-prepared as a 10 mM solution in DMSO. FR900359 (FR) was graciously supplied by the lab of Dr. Evi Kostenis.
(§2) Cell growth assays were performed as described previously (Yamaguchi et al., 2016). Cells were cultured in 96-well-plate and treated with drugs for 72 hr. The manufacturer's instructions of Alamar Blue Cell Viability Reagent were followed to complete the assay.

[2] = test system: UM cell lines (92.1, OMM1.3, OMM1.5, Mel270, Mel202; GNAQ mutant); assay: Cell viability assay (Alamar Blue) in UM cell lines; assay type: cell-based, human
Description: as §1, §2

ERK [3] = assay: Immunoblot of ERK phosphorylation in UM cells; assay type: cell-based, human; conditions: OMM1.3 cells
Description: (§3) Western blot assays were performed as described previously (Feng et al., 2014b). Western blots were developed using Immobilon Western Chemiluminescent HRP substrate (Millipore, MA) according to the manufacturer's instructions.

FAK [4] = assay: Immunoblot of FAK phosphorylation (pY397-FAK) in UM cells; assay type: cell-based, human; conditions: OMM1.3 / Mel270 cells
Description: as §3

ERK [5] = assay: Immunoblot of ERK phosphorylation in Gαq-DREADD expressing HEK293 cells stimulated with CNO; assay type: cell-based, human; conditions: CNO stimulation, 1 hr pre-treatment
Description: as §3

FAK [6] = assay: Immunoblot of FAK phosphorylation in Gαq-DREADD expressing HEK293 cells stimulated with CNO; assay type: cell-based, human; conditions: CNO stimulation, 1 hr pre-treatment
Description: as §3

[7] = test system: Hippo pathway components (YAP, LATS1, MOB1, MST1); assay: Immunoblot / immunoprecipitation of YAP and Hippo pathway components in UM cells; assay type: cell-based, human
Description: as §3
Cells were lysed with IP lysis buffer [10 mM Tris-Cl (pH 8.0), 150 mM NaCl, 1 mM EDTA, 0.3% CHAPS, 50 mM NaF, 1.5 mM Na3VO4, protease inhibitor (Thermo Scientific, CO), 1 mM DTT, 1 mM PMSF], and centrifuged at 16,000 g for 5 min at 4° C. Supernatants were incubated with first antibody for 1 hr at 4° C., and protein G or protein A conjugated resin for another 1 hr. Resins were then washed 3 times with lysis buffer and boiled in SDS-loading buffer.

UM tumor xenografts = assay: Human UM tumor xenografts (Mel270, OMM1.3) with VS-4718 in vivo treatment; parameters: species or system mice
Description: All animal studies were carried out according the University of California San Diego (UCSD) Institutional Animal Care and Use Committee (IACUC)-approved protocol (S15195). Female NOD.Cg-Prkdcscid Il2rgtm1wjl/SzJ mice (commonly known as […], Jackson Laboratory, Maine), 6 to 8 weeks of age and weighing 18 to 20 g, were used in the study of UM cells, housed in appropriate sterile filter-capped cages, and provided food and water ad libitum. All procedures were essentially as previously described (Feng et al., 2014b; Schrage et al., 2015; Vaque et al., 2013). Briefly, exponentially growing cultures were harvested, washed, resuspended in RPMI 1640, and 2×10^6 viable cells were transplanted subcutaneously into the flanks of mice. For tumor growth analysis, tumor volume was assessed as [(LW^2/2); where L and W represent the length and the width of the tumor]. The animals were monitored twice weekly for tumor development. Results of animal experiments were expressed as mean±SEM of a total of tumors analyzed. To administer VS-4718 (Verastem Oncology; Needham, Mass.) to mice, 10 mg/ml VS-4718 was prepared in 0.5% carboxymethyl cellulose (CMC) (C5678, Sigma-Aldrich; St. Louis, Mo.) 0.1% Tween 80 (P1754, Sigma Aldrich; St. Louis, Mo.) in sterile water, 100 mg/kg administered via oral gavage twice daily, control group was treated with vehicle.
The following antibodies were used for immunohistochemistry anti-Ki67 (DAKO) and anti-YAP (CST). Unstained 5 μm paraffin sections were dewaxed in Safeclear II (Fisher Scientific, PA), hydrated through graded alcohols and distilled water, and washed three times with PBS. Antigens were retrieved using or 10 mM citrate buffer boiled in a microwave for 20 min (2 min at 100% power and 18 min at 10% power). The slides were allowed to cool down for 30 min at room temperature, rinsed twice with PBS, incubated in 3% hydrogen peroxide in PBS for 10 min to quench the endogenous peroxidase. […]

YAP = YAP nuclear/cytoplasmic localization (immunofluorescence, fractionation western blot) in UM cells; assay type: cell-based, human; conditions: OMM1.3, 1 μM
Description: Cells cultured on coverslips were washed with PBS, fixed with 3.7% formaldehyde in phosphate-buffered saline (PBS) for 30 min, and permeabilized using 0.05% Triton X-100 for 10 min. Fixed cells were blocked with 3% FBS-containing PBS for 30 min, and incubated with YAP (Cell signaling technology, MI) antibody (in 3% FBS-PBS otherwise stated) for 1 hr at room temperature. The reaction was visualized with Alexa-labeled secondary antibodies (Invitrogen, CA). Samples were mounted in PBS buffer containing Hoechst 33342 (Molecular Probes, OR) for nuclear staining. Images were acquired with an Axio Imager Z1 microscope equipped with ApoTome system controlled by ZEN 2012 software (Carl Zeiss, NY).
Subcellular fractionated lysates were generated using NE-PER Nuclear and Cytoplasmic Extraction Reagents (Thermo Scientific, CO) following manufacturer instructions.

OMM1.3 cells [8] = assay: Colony formation assay in semisolid media (3D culture); assay type: cell-based, human; conditions: OMM1.3, semisolid media
Description: 3-dimensional cultures were performed as described previously (Tancioni et al., 2015). Briefly, 10,000 cells were embedded in 1% methylcellulose diluted in growth media and plated onto 6-well poly-hydroxyethyl methacrylic acid (poly-HEMA)-coated plates.

92.1 xenograft = assay: 92.1 OM xenografts treated with MEKi, FAKi or both; assay type: in vivo, mice; conditions: 92.1 xenografts; trametinib 1 mg/kg QD i.p., VS-4718 50 mg/kg BID p.o.
Text: FIGS. 17A and 17B show potent antitumoral and cytotoxic effects of FAKi/MEKi combination in OM xenografts. […] (FIG. 17B) Quantification of IHC tumor sections stained for BrdU, cleaved-caspase3 (Cl-Casp3), pERK1/2, and YAP. For each panel, the bars from left to right are control, MEKi, FAKi and MEKi+FAKi. Data are mean±SEM (7 mice/group), *p<0.05;**p<0.01; ***p<0.001; n. s. not significant.

OMM1.3 cells [9] = assay: Immunoblot of cleaved PARP (apoptosis) in UM cells; assay type: cell-based, human; conditions: OMM1.3, 36 hr
Description: as §3

[10] = test system: YAP-target genes CTGF and CYR61; assay: qPCR of YAP-target genes CTGF and CYR61 in UM cells; assay type: cell-based, human; conditions: 1 μM, 2 hr
YAP-signature genes = assay: RNA-seq and Gene Set Enrichment Analysis of UM cells treated with FAKi; assay type: cell-based, human; conditions: OMM1.3, 1 μM, 2 hr
Text: FAK is at the intersection of multiple signaling pathways that promote cancer progression (Sulzmaier et al., 2014), but it is not clear which downstream targets of FAK play a critical role in UM. As an approach to identify key downstream targets of the Gαq− FAK signaling axis, Applicant performed transcriptomic RNA-sequencing on UM cells treated with FAKi (i.e., FAK inhibitor), and performed Gene Set Enrichment Analysis (GSEA) (Subramanian et al., 2005) to characterize the transcriptional effects of inhibiting Gαq and FAK at the pathway level using over 10,000 gene sets from the MSigDB (Molecular Signatures Database), including two sub-collections of oncogenic signatures and hallmark gene sets that Applicants added to the database (Liberzon et al., 2015). […] These include the downregulation of genes described as stimulated by KRAS and EGFR and cytokines such as IL21 and IL15, consistent with the likely role in the activation of growth promoting pathways by FAK (Sulzmaier et al., 2014). […] In both cases, FAK inhibition or knockdown reduced YAP pY357 and increased pS127, and reduced mRNA levels of YAP targets and YAP activity measured by luciferase reporter assay (FIGS. 7A-7E), similar to UM cells.

[11] = after prolonged use; cited from earlier work

Molecule: CNS(=O)(=O)Nc1nccc(Cc2c(C)c3ccc(Oc4ncccn4)cc3oc2=O)c1F [CH5126766]
synergy of growth inhibition in combination with FAKi VS-4718 (OM cells; combined with VS-4718): synergistic anti-proliferative effects
synergy of anti-proliferative effect in combination with VS-6063 (defactinib) (OM cells; combined with VS-6063): synergistic anti-proliferative effects

Molecule: C=C1C(=O)N[C@@H](C)C(=O)N(C)[C@@H](C)C(=O)N[C@@H]([C@H](OC(=O)[C@@H](NC(=O)CC)[C@H](O)C(C)C)C(C)C)C(=O)N(C)[C@@H]([C@@H](C)OC)C(=O)O[C@H](C(C)C)[C@H](NC(C)=O)C(=O)O[C@H](Cc2ccccc2)C(=O)N1C [FR900359] (Ac-[X1][dPhLac][NMeDha]A[NMeA][X1](Leu(3R-OH,Nα-propionyl))[NMeT](Me); ester 1-C)
SKCM cell proliferation, result in words [1]: only in UM cells
UM cell viability / proliferation, result in words ([2]; UM cell lines): inhibition of cell proliferation
ERK activation in UM cells (ERK [3]): diminished
FAK activation (pY397-FAK) in UM cells (FAK [4]): diminished

Molecule: COc1ccc2c(c1)CC[C@@H]1[C@@H]2CC[C@]2(C)[C@@H](NCCCCCCN3C(=O)C=CC3=O)CC[C@@H]12 [U73122]
ERK activation by Gαq-DREADD in HEK293 cells (ERK [5]): abolished
FAK activation by Gαq-DREADD in HEK293 cells (FAK [6]): did not have an impact

EC50 ([1]; Homo sapiens, SK-MEK-28 (BRAF mutant), control): > 10000 nM
Molecule: CNC(=O)c1ccccc1Nc1cc(Nc2ccc(N3CCOCC3)cc2OC)ncc1C(F)(F)F [VS-4718]
MOB1/LATS interaction [7]: enhanced
p909-LATS1 [7]: increase
p1079-LATS1 [7]: increase
p-MST1 [7]: did not observe an increase
pY26 MOB1 ([7]; 0-10 μM, 2 hr): dose-dependent decrease
YAP phosphorylation on serine 127 (pS127-YAP) ([7]; listed as FAKi): increase
YAP phosphorylation on tyrosine 357 (Y357) ([7]; listed as FAKi): repressed; also recorded: diminished phosphorylation
total YAP protein level ([7]; long-term (up to 36 hours)): downregulation
cytoplasmic retention of YAP in tumors (UM tumor xenografts; Mel270 tumors): clearly increased
cell proliferation in UM tumors (Ki67) (UM tumor xenografts; two UM tumor models (Mel270, OMM1.3)): reduces
UM tumor size (UM tumor xenografts; two UM tumor models (Mel270, OMM1.3), 100 mg/kg oral gavage twice daily): reduces
YAP nuclear accumulation (YAP): clearly diminished
colony formation ability of UM cells (OMM1.3 cells [8]): nearly abolished the colony formation ability
antitumoral profile in OM xenografts (cl-Casp3) (92.1 xenograft): cytostatic profile
cleaved PARP (UM apoptosis) (OMM1.3 cells [9]): accumulation of cleaved PARP; also recorded: increased cleaved PARP
EC50 ([2]; Homo sapiens, 92.1, OMM1.3, OMM1.5, Mel270, Mel202, 72 hr, read-out: EC50, sensitivity of UM cell lines to FAK inhibition (cell viability)): ~1000 nM
mRNA of YAP-target genes CTGF and CYR61 (qPCR) [10]: significant reduction
expression of YAP-signature genes (RNA-seq, GSEA) (YAP-signature genes): significant downregulation
FAK activation (pY397-FAK) in UM cells (FAK [4]): inhibited FAK rapidly; also recorded: decrease in pY397-FAK

Molecule: C[C@@H](N)[C@H]1CC[C@H](C(=O)Nc2ccncc2)CC1 [Y-27632]
FAK activation by Gαq-DREADD in HEK293 cells (FAK [6]): repressed FAK activation
FAK activation (pY397-FAK) in UM cells (FAK [4]): repressed FAK activation

Molecule: Cc1ccc2c(c1)C(=O)C1(O)CCN(c3ccccc3)C1=N2 (stereo not drawn) [blebbistatin]
FAK activation by Gαq-DREADD in HEK293 cells (FAK [6]): repressed FAK activation
FAK activation (pY397-FAK) in UM cells (FAK [4]): repressed FAK activation

Molecule: verteporfin
systemic toxicity [11]: high systemic toxicities
